Experimental data reported in ChEMBL document CHEMBL4396891, “Recent update on anti-dengue drug discovery” (Eur J Med Chem, 2019).

Tests used:
Genome polyprotein [1] = target: T1, Genome polyprotein (dengue virus type 2, UniProt P29990); test: Inhibition of DENV2 NS2B-NS3 serine protease using Bz-Nle-Lys-Arg-Arg-AMC as substrate after 15 mins by fluorescence assay
dengue virus type 2 [2] = test: Antiviral activity against DENV2 infected in BHK-21 cells by MTTR assay; assay type: functional, organism-based
dengue virus type 2 [3] = test: Antiviral activity against DENV2; assay type: functional, organism-based
[4] = target: Genome polyprotein (dengue virus type 2) (UniProt P29990); test: Inhibition of DENV2 NS2B-NS3 serine protease
dengue virus type 2 [5] = test: Antiviral activity against DENV2 infected in BHK-21 cells assessed as reduction in viral production; assay type: functional, organism-based
dengue virus type 2 [6] = test: Antiviral activity against DENV2 infected in BHK-21 cells assessed as viral replication after 24 to 48 hrs by luciferase reporter gene assay; assay type: functional, organism-based
dengue virus type 2 [7] = test: Antiviral activity against DENV2 infected in BHK-21 cells after 72 hrs by plaque-forming assay; assay type: functional, organism-based; details: BHK-21, 72 h
Dengue virus [8] = test: Antiviral activity against dengue virus; assay type: functional, organism-based
dengue virus type 2 [9] = test: Antiviral activity against DENV2 infected in BHK-21 cells assessed as viral titer by plaque assay; assay type: functional, organism-based
dengue virus type 2 [10] = test: Antiviral activity against DENV2 ICC-265 infected in human Huh7.5 cells after 72 hrs; assay type: functional, organism-based; details: ICC-265, Huh7.5, 72 h
dengue virus type 4 = test: Antiviral activity against DENV4 TVP360 infected in human Huh7.5 cells after 72 hrs; assay type: functional, organism-based; details: TVP360, Huh7.5, 72 h
dengue virus type 1 [11] = test: Antiviral activity against DENV1 FGA/89 infected in human Huh7.5 cells after 72 hrs; assay type: functional, organism-based; details: FGA/89, Huh7.5, 72 h
dengue virus type 3 = test: Antiviral activity against DENV3 97 infected in human Huh7.5 cells after 72 hrs; assay type: functional, organism-based; details: Dengue virus, 97, Huh7.5, 72 h
Nonstructural protein 5 [12] = target: T2, Nonstructural protein 5 (Dengue virus, UniProt V5TFZ2); test: Inhibition of His-tagged DENV2 NS5 RNA dependent RNA polymerase; parameters: species or system dengue virus type 2
T2 sequence (V5TFZ2 whole entry): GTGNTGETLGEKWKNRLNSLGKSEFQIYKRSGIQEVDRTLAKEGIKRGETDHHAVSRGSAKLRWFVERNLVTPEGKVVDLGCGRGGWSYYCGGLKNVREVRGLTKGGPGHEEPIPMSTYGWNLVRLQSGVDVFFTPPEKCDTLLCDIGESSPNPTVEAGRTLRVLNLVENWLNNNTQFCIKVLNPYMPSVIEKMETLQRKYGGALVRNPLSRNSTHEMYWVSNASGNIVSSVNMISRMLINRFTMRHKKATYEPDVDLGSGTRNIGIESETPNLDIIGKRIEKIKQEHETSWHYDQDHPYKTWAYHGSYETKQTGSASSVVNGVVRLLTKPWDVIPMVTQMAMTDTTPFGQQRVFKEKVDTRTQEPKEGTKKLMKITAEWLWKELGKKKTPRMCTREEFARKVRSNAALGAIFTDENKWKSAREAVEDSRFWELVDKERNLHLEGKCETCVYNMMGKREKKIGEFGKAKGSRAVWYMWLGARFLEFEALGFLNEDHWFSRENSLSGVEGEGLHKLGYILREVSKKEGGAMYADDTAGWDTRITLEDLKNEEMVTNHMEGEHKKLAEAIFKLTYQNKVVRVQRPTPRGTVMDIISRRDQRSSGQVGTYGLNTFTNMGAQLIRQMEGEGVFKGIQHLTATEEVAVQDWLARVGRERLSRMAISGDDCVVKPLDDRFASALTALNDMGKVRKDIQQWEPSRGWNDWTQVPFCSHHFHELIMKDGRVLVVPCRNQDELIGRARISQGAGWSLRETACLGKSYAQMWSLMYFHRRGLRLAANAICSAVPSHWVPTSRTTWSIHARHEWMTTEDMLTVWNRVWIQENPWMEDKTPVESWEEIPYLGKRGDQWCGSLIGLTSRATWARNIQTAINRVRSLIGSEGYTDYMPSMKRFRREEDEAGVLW

Nonstructural protein 5 [13] = target: T2, Nonstructural protein 5; test: Inhibition of His-tagged DENV2 NS5 RNA dependent RNA polymerase expressed in baculovirus infected sf9 cells; parameters: species or system dengue virus type 2
Nonstructural protein 5 [14] = target: T2, Nonstructural protein 5; test: Inhibition of dengue virus NS5 RNA dependent RNA polymerase
dengue virus type 2 [15] = test: Antiviral activity against DENV2 infected in BHK cells assessed as reduction in viral yield after 24 ro 48 hrs by luciferase reporter gene assay; assay type: functional, organism-based
dengue virus type 2 [16] = test: Antiviral activity against DENV2 infected in human Huh7 cells by qRT-PCR analysis; assay type: functional, organism-based; details: Huh-7
Genome polyprotein [17] = target: T1, Genome polyprotein; test: Inhibition of DENV2 NS2B-NS3 serine protease expressed using Benzoyl-Nle-Lys-Arg-Arg-AMC as substrate measured preincubated for 3 mins followed by substrate addition by fluorescence assay
dengue virus type 2 [18] = test: Antiviral activity against DENV2 infected in BHK-21 cells assessed as viral replication; assay type: functional, organism-based
dengue virus type 1 [19] = test: Antiviral activity against DENV1 infected in African green monkey Vero cells assessed as reduction in viral replication after 4 days by qRT-PCR analysis; assay type: functional, organism-based; details: 96 h
Genome polyprotein [20] = target: T1, Genome polyprotein; test: Inhibition of His-tagged DENV2 NS2B-NS3 serine protease expressed in Escherichia coli BL21 using Boc-Gly-Arg-Arg-7-amino-4-methylcoumarin as substrate measured after 10 mins by fluorometric assay
Dengue virus [21] = test: Antiviral activity against dengue virus infected in HeLa cells assessed as reduction in viral propagation after 72 hrs by RT-qPCR analysis; assay type: functional, organism-based

`CCc1ccc(NS(=O)(=O)c2ccc(N3C(=O)c4ccccc4C3=O)cc2)cc1` showed an IC50 (Genome polyprotein [1]) of 48.2 µM.

Work on `CC1(C)O[C@H]1[C@H]1C[C@@H]([C@H]2CC[C@]3(C)C4=CC[C@H]5C(C)(C)C(=O)CC[C@]5(C)[C@H]4CC[C@@]23C)[C@H](O)O1` yielded an EC50 (dengue virus type 2 [2]) of 12 µM.

Compound `CCCCC1C(C(=O)N(C)OC)C(c2ccccc2)CCN1C(=O)OC(C)(C)C` (centres undefined) has an EC50 (dengue virus type 2 [3]) of 2.4 µM and an INH [4] of 257 µM.

`Cc1c(O)cccc1C(=O)N[C@@H](CSc1ccccc1)[C@H](O)CN1C[C@H]2CCCC[C@H]2C[C@H]1C(=O)NC(C)(C)C` [NELFINAVIR] gave an IC50 (dengue virus type 2 [3]) of 3.5 µM.

`Cc1cc(N2CCN(C)CC2)ccc1NC(=O)c1c2c(nc3ccccc13)CCN(Cc1ccccc1)C2` showed an EC50 (dengue virus type 2 [5]) of 5 µM.

With `CCN(CC)Cc1cc(Nc2ccnc3cc(Cl)ccc23)ccc1O` [AMODIAQUINE] the IC50 (dengue virus type 2 [6]) was 1.08 µM and the IC90 (dengue virus type 2 [6]) was 2.69 µM.

For `CCCCCCCCCCCCCCCC[N+](CC)(CO)CO`, the EC50 (dengue virus type 2 [7]) was 1.03 µM.

With `CC(C)C[C@@H]1NC(=O)[C@@H]2CCCN2C1=O` the EC50 (Dengue virus [8]) was 11.2 to 21.2 µM.

For `CCCCC1C(C(=O)CC)C(c2ccccc2)CCN1C(=O)OC(C)(C)C` (centres undefined), the EC50 (dengue virus type 2 [3]) was 3.2 µM and the INH [4] was 214 µM.

With `C#Cc1cccc(Nc2ncnc3cc(OCCOC)c(OCCOC)cc23)c1` [ERLOTINIB] the EC50 (dengue virus type 2 [9]) was 4.07 µM.

Compound `CCCCCCCCCCCCCCNCCNC(=O)C[C@]1(O)C[C@@H](O)[C@@H](O)[C@H](O)C1` has an IC50 (dengue virus type 2 [10]) of 6.5 to 10.8 µM, an IC50 (dengue virus type 4) of 6.5 to 10.8 µM and an IC50 (dengue virus type 1 [11]) of 6.5 to 10.8 µM. It also gave an IC50 (dengue virus type 3) of 6.5 to 10.8 µM.

With `O=C1N[C@@H](Cc2ccccc2)C(=O)N2C[C@H](O)C[C@@H]12` the EC50 (Dengue virus [8]) was 11.2 to 21.2 µM.

Compound `CCCc1cc(=O)oc2c(C(=O)CC(C)C)c(O)c(CC=C(C)C)c(O)c12` has an EC50 (dengue virus type 2 [3]) of 2.6 to 10.2 µM.

Work on `CC[C@@H](c1cc(OC)c(OC)cc1OC)[C@H](C)[C@@H](/C(C)=C/c1cc(OC)c(OC)cc1OC)c1cc(OC)c(OC)cc1OC` yielded an EC50 (Dengue virus [8]) of 3.9 µM.

`CCOC(=O)c1cnn(-c2ccccc2)c1N(S(=O)(=O)c1ccc([N+](=O)[O-])cc1)S(=O)(=O)c1ccc([N+](=O)[O-])cc1` gave an EC50 (Nonstructural protein 5 [12]) of 4.9 µM, an EC50 (dengue virus type 2 [3]) of 5.7 µM and an EC50 (Nonstructural protein 5 [13]) of 0.013 µM.

`O=C1c2ccccc2C(=O)N1c1ccc(S(=O)(=O)Nc2cccc3ccccc23)cc1` gave an IC50 (Genome polyprotein [1]) of 122 µM.

`CC[C@](C)(O)CCCCC[C@H]1C=CC(=O)O1` showed an EC50 (Dengue virus [8]) of 11.2 to 21.2 µM.

`C=C(C)[C@@H]1CC[C@]2(C(=O)O)CC[C@]3(C)[C@H](CC[C@@H]4[C@@]5(C)CC[C@H](O)C(C)(C)[C@@H]5CC[C@]43C)[C@@H]12` [BETULINIC ACID] showed an IC50 (Nonstructural protein 5 [14]) of 1.7 to 2.1 µM.

Work on `O[C@@H](c1cc(C(F)(F)F)nc2c(C(F)(F)F)cccc12)[C@H]1CCCCN1` [(S,R)-MEFLOQUINE] yielded an EC50 (dengue virus type 2 [15]) of 3.22 µM.

In the case of `OCc1cc(C(O)CNCCCCCCOCCCCc2ccccc2)ccc1O` (centres undefined) [SALMETEROL], the IC50 (dengue virus type 2 [16]) is reported as 0.67 µM.

`C[C@@H]1O[C@@H](Oc2c(-c3ccc(O)c(O)c3)oc3cc(O)cc(O)c3c2=O)[C@H](O)[C@H](O)[C@H]1O` [QUERCITRIN] gave an IC50 (Nonstructural protein 5 [14]) of 1.7 to 2.1 µM.

For `Cc1ccc(C(=O)c2cc(O)c(O)c([N+](=O)[O-])c2)cc1` [TOLCAPONE], the IC50 (Genome polyprotein [17]) was 0.64 to 1.15 µM and the EC50 (dengue virus type 2 [18]) was 2.29 µM.

Work on `O=C(Nc1cccs1)c1ccccc1Sc1ccc([N+](=O)[O-])cc1` yielded an EC50 (dengue virus type 1 [19]) of 3.5 µM and an IC50 (Genome polyprotein [20]) of 98 µM.

`CCN(CC)Cc1ccc(C(=O)N(CCc2ccccc2OC)[C@@H]2CCNC2)cc1` was tested, and the IC50 (Dengue virus [21]) was 36.5 µM and the IC90 (Dengue virus [21]) was 35.5 µM.

For `CCCCCCCCCCCCNCCNC(=O)C[C@@]1(O)C[C@@H](O)[C@@H]2OC(C)(C)O[C@@H]2C1`, the IC50 (dengue virus type 2 [10]) was 6.9 to 10.4 µM, the IC50 (dengue virus type 4) was 6.9 to 10.4 µM and the IC50 (dengue virus type 1 [11]) was 6.9 to 10.4 µM. For the same compound, the IC50 (dengue virus type 3) was 6.9 to 10.4 µM.
